System: normal human keratinocytes/stratified squamous epithelium (EPIOCULAR model)
Experiment: Ocular irritation MTT assay (EPIOCULAR model)
Type: cell-based
Experimental: Another ocular irritation study was done by exposing a microemulsion containing polyoxyl 35 castor oil in accordance with an embodiment of the present disclosure onto normal human keratinocytes/stratified squamous epithelium which is similar to that found in the cornea epithelium of the human eye (EPIOCULAR model), and then checking tissue viability with MTT assay for cytotoxicity after incubation in comparison with a water control (Cyprotex).

SMILES: COC(C)=O [Methyl Acetate]
- Irritation Response (Irritant if ≤ 60%) (MTT assay): Positive
- Mean Tissue Viability (MTT assay after incubation, in comparison with water control): 31.1%

Reference: patent publication US20220031629A1, “OPHTHALMIC COMPOSITIONS FOR REMOVING MEIBUM OR INHIBITING MEIBUM BUILDUP” (Altaire Pharmaceuticals, Inc., priority 2020, published 2022)
